{
  "source": "patent US9216186B2",
  "about": "“Combination of a pyrroloquinoline compound and an aminoglycodise antimicrobial agent” (HELPERBY THERAPEUTICS LIMITED, priority 2010, dated 2015)",
  "format_in_all_cases": "cell-based",
  "key": {"[1]": {"tested_on": "clinically latent microorganisms", "assay": "Screening of compounds for ability to kill clinically latent microorganisms (method of WO2000028074)", "settings": "observed by the Applicant using the method of WO2000028074", "excerpt": "International Patent Application, Publication Number WO2000028074 describes a method of screening compounds to determine their ability to kill clinically latent microorganisms. […] This observation has necessitated the development of novel antimicrobials which may be used to kill clinically latent microorganisms.\nBy way of example, WO2000028074 describes a suitable method of screening compounds to determine their ability to kill clinically latent microorganisms. A typical method may include the following steps: • (1) growing a bacterial culture to stationary phase; • (2) treating the stationary phase culture with one or more antimicrobial agents at a concentration and or time sufficient to kill growing bacteria, thereby selecting a phenotypically resistant sub-population; • (3) incubating a sample of the phenotypically resistant subpopulation with one or more test compounds or agents; and • (4) assessing any antimicrobial effects against the phenotypically resistant subpopulation."}, "[2]": {"tested_on": "Staphylococcus aureus (Oxford)", "assay": "Minimum bactericidal concentration (MBC), subculture on drug-free TSA plates", "settings": "S. aureus (Oxford)"}, "[3]": {"tested_on": "Staphylococcus aureus (Oxford)", "assay": "Minimum inhibitory concentration (MIC), broth dilution in Iso-Sensitest broth", "settings": "S. aureus (Oxford), overnight incubation at 37° C.", "procedure": "Staphylococcus aureus (Oxford); Gram positive; Reference strain.\nIso-Sensitest Broth (Oxoid) was used for evaluation of Minimum inhibitory concentrations (MICs), susceptibility tests for antimicrobials, and efficacy of antimicrobial combinations.\nThe stock solution of each drug was diluted to required concentrations. 10 μl of drug from each dilution was taken and mixed with 290 μl of culture with 10^6 of bacterial cells on a 96-well plate to make the final required concentrations (μg/ml).\nThe plates were read at 405 nm using a 96-well plate reader Elx 800 equipped with a 405-nm filter (Bio-Tek) before and after incubation. The MIC values of the drugs were determined by comparison of the optical density reading between prior and post drug treatment."}, "[4]": {"tested_on": "log phase Pseudomonas aeruginosa (clinical isolate)", "assay": "Chequerboard analysis of log phase bacteria, optical density at 405 nm / MIC", "settings": "for MIC: single agent, range up to 64 μg/ml HT61, 16 μg/ml tobramycin", "procedure": "(§1) Pseudomonas aeruginosa (clinical isolate).\nP. aeruginosa was grown in 10 ml of NB overnight at 37° C. with continuous shaking at 120 rpm. The overnight cultures were diluted 1000× with iso-sensitest broth to obtain a cell suspension containing the bacteria at 10^6 CFU/ml. The cultures were incubated at 37° C. with shaking for 1-2 hours served as log-phase cultures. Viability of the bacteria was estimated by colony forming unit (CFU) counts.\nThe two drugs were serially diluted twofold to 0 and combined in a pattern of an array.\nThe optical density of the bacterial cells was read at 405 nm using a plate reader (Bio TEK). The MIC concentration was determined as the lowest concentration of drug which inhibits the bacterial growth. The MIC values of the drugs were determined by comparison of the optical density reading between prior and post drug treatment."}, "[5]": {"tested_on": "stationary phase Pseudomonas aeruginosa (clinical isolate)", "assay": "Kill curve by CFU counts against stationary phase bacteria", "procedure": "as §1\nA single colony of Ps. aeruginosa was inoculated in 10 ml of Nutrient Broth No. 2 (NB) (Oxoid) which was incubated overnight at 37° C. with continuous shaking at 120 rpm. 200 μl of the overnight culture was added into a 500 ml screw-cap which contained 100 ml of NB. The 100 ml culture was incubated at 37° C. with continuous shaking for 5 to 6 days. The cultures were diluted with phosphate buffered saline to 10^7 CFU/ml.\nThe activities of the combination and each of the individual drugs were measured by CFU counts at 0, 2, 4, 6 and 8 hours. CFU counts were performed as follows: from serial 10-fold dilutions of the experimental cultures, 100 μl samples were added to triplicate plates of nutrient agar plates (Oxoid). Colony forming units (CFU) were counted after incubation of the plates at 37° C. for 24 hours."}, "[6]": {"settings": "Staphylococcus aureus, read-out: MIC"}},
  "note": "Where “and” joins values, the source holds several entries; their conditions need not be identical. Identical values can stand only once. Counter-ions that a name gives are not always drawn. Like-named read-outs stand apart in the source and are kept apart here.",
  "data": [
    {"compound": "CC[C@H]1OC(=O)[C@H](C)[C@@H](O[C@H]2C[C@@](C)(OC)[C@@H](O)[C@H](C)O2)[C@H](C)[C@@H](O[C@@H]2O[C@H](C)C[C@H](N(C)C)[C@H]2O)[C@](C)(O)C[C@@H](C)CN(C)[C@H](C)[C@@H](O)[C@]1(C)O", "note": "[azithromycin]", "values": [
      {"measurement": "activity against clinically latent microorganisms", "setting": "[1]", "result": "little or no activity"}
    ]},
    {"compound": "Gentamicin", "values": [
      {"measurement": "MBC", "setting": "[2]", "result": 8, "unit": "µg/mL"},
      {"measurement": "MIC", "setting": "[3]", "result": 1, "unit": "µg/mL"}
    ]},
    {"compound": "NC[C@H]1O[C@H](O[C@H]2[C@H](O)[C@@H](O[C@H]3O[C@H](CO)[C@@H](O)[C@H](N)[C@H]3O)[C@H](N)C[C@@H]2N)[C@H](N)C[C@@H]1O", "note": "[Tobramycin]", "values": [
      {"measurement": "MIC", "setting": "[4]; Pseudomonas aeruginosa, log phase P. aeruginosa, read-out: MIC", "result": 1, "unit": "µg/mL"},
      {"measurement": "optical density at 405 nm", "setting": "[4]; tobramycin 0.01563 μg/ml alone (HT61 0)", "result": "3.25 and 3.14"},
      {"measurement": "optical density at 405 nm", "setting": "[4]; tobramycin 0.03125 μg/ml alone (HT61 0)", "result": "3.24 and 3.18"},
      {"measurement": "optical density at 405 nm", "setting": "[4]; tobramycin 0.0625 μg/ml alone (HT61 0)", "result": "3.16 and 3.09"},
      {"measurement": "optical density at 405 nm", "setting": "[4]; tobramycin 0.125 μg/ml alone (HT61 0)", "result": "3.15 and 3.08"},
      {"measurement": "optical density at 405 nm", "setting": "[4]; tobramycin 0.25 μg/ml alone (HT61 0)", "result": "3.04 and 2.97"},
      {"measurement": "optical density at 405 nm", "setting": "[4]; tobramycin 0.5 μg/ml alone (HT61 0)", "result": "2.19 and 2.18"},
      {"measurement": "optical density at 405 nm", "setting": "[4]; tobramycin 1 μg/ml alone (HT61 0)", "result": 0.46},
      {"measurement": "optical density at 405 nm", "setting": "[4]; tobramycin 2 μg/ml alone (HT61 0)", "result": "0.44 and 0.45"},
      {"measurement": "optical density at 405 nm", "setting": "[4]; tobramycin 4 μg/ml alone (HT61 0)", "result": "0.47 and 0.50"},
      {"measurement": "optical density at 405 nm", "setting": "[4]; tobramycin 8 μg/ml alone (HT61 0)", "result": 0.44},
      {"measurement": "activity alone against stationary phase P. aeruginosa", "setting": "[5]; alone at 2 and 1 μg/ml", "result": "very low or no activities"}
    ]},
    {"compound": "co-amoxiclav", "values": [
      {"measurement": "activity against clinically latent microorganisms", "setting": "[1]", "result": "little or no activity"}
    ]},
    {"compound": "Cc1nc2ccc(Oc3ccccc3)cc2c2c1CCN2CCc1ccccc1", "note": "[4-methyl-8-phenoxy-1-(2-phenylethyl)-2,3-dihydro-1H-pyrrolo[3,2-c]quinoline]", "values": [
      {"measurement": "MBC", "setting": "[2]; Staphylococcus aureus, read-out: MBC", "result": 16, "unit": "µg/mL"},
      {"measurement": "MIC", "setting": "[3]; [6]", "result": 8, "unit": "µg/mL"}
    ]},
    {"compound": "CC(=O)NC[C@H]1CN(c2ccc(N3CCOCC3)c(F)c2)C(=O)O1", "note": "[linezolid]", "values": [
      {"measurement": "activity against clinically latent microorganisms", "setting": "[1]", "result": "little or no activity"}
    ]},
    {"compound": "NC[C@H]1O[C@H](O[C@H]2[C@H](O)[C@@H](O[C@H]3O[C@H](CO)[C@@H](O)[C@H](N)[C@H]3O)[C@H](N)C[C@@H]2N)[C@H](O)[C@@H](O)[C@@H]1O", "note": "[Kanamycin]", "values": [
      {"measurement": "MIC", "setting": "[3]; [6]", "result": 8, "unit": "µg/mL"}
    ]},
    {"compound": "Cc1nc2ccc(Oc3ccccc3)cc2c2c1CCN2CCc1ccccc1", "note": "[HT61, 4-methyl-8-phenoxy-1-(2-phenylethyl)-2,3-dihydro-1H-pyrrolo[3,2-c]quinoline mesylate]", "values": [
      {"measurement": "optical density at 405 nm", "setting": "[4]; HT61 1 μg/ml alone (tobramycin 0), mesylate", "result": "3.16 and 3.08"},
      {"measurement": "optical density at 405 nm", "setting": "[4]; HT61 2 μg/ml alone (tobramycin 0), mesylate", "result": "3.12 and 3.11"},
      {"measurement": "optical density at 405 nm", "setting": "[4]; HT61 4 μg/ml alone (tobramycin 0), mesylate", "result": "3.11 and 3.10"},
      {"measurement": "optical density at 405 nm", "setting": "[4]; HT61 8 μg/ml alone (tobramycin 0), mesylate", "result": "3.15 and 3.10"},
      {"measurement": "optical density at 405 nm", "setting": "[4]; HT61 16 μg/ml alone (tobramycin 0), mesylate", "result": "3.11 and 3.07"},
      {"measurement": "optical density at 405 nm", "setting": "[4]; HT61 32 μg/ml alone (tobramycin 0), mesylate", "result": "3.09 and 3.04"},
      {"measurement": "optical density at 405 nm", "setting": "[4]; HT61 64 μg/ml alone (tobramycin 0), mesylate", "result": "3.01 and 3.09"},
      {"measurement": "MIC", "setting": "[4]; log phase P. aeruginosa", "result": "no MIC"},
      {"measurement": "MIC of HT61 in combination with tobramycin", "setting": "[4]; with tobramycin at 0.5 μg/ml, log phase P. aeruginosa", "result": 16, "unit": "µg/mL"},
      {"measurement": "activity alone against stationary phase P. aeruginosa", "setting": "[5]; alone at 32, 16 and 8 μg/ml", "result": "slight or no activities"}
    ]},
    {"compound": "C/C(=C\\C(=O)OCCCCCCCCC(=O)O)C[C@@H]1OC[C@H](C[C@@H]2O[C@H]2[C@@H](C)[C@H](C)O)[C@@H](O)[C@H]1O", "note": "[mupirocin]", "values": [
      {"measurement": "activity against clinically latent microorganisms", "setting": "[1]", "result": "little or no activity"}
    ]}
  ]
}
